Laboratory results published in patent US20080171721A1, “Halogenated alkyl di- and trisaccharides, pharmaceutical formulations, diagnostic kits and methods of treatment” (priority 2007, published 2008).

Assays:
P. aeruginosa = assay: Antimicrobial testing, time-kill with plate count; assay type: cell-based, Pseudomonas aeruginosa; conditions: antimicrobial if greater than 5 log reduction
Protocol: (§1) The preferred embodiment was tested for antimicrobial activity using the following procedure.
(§2) A 1% solution of Compound 3 was prepared in DPBS (Dulbecco's phosphate buffered saline). A 25 ml mixture of the 1% Compound 3 and PBS (phosphate buffered saline, pH 7.2 was prepared by mixing 5 ml of the 1% Compound 3 solution and 20 ml of the PBS.
(§3) A 10 ml aliquot of the above mixture was placed into each of two sterile test tubes. One test tube was inoculated with 0.1 ml of S. aureus and the other with 0.1 ml of P. aeruginosa, such that there was a final concentration of 10^6 colony-forming units (CFU)/0.1 mls.
(§4) A various time points, 1.0 ml of each inoculated test sample were removed, diluted 10× with 0.45% saline and plated on trypticase soy agar (TSA) plates.
(§5) The plates were incubated at 30-35° C. for not less than 24 hours. Concentration of CFU in the samples taken at each time point were enumerated by standard methods. The log reduction was calculated for each time period and organism. The log reduction was calculated using the formula: Log reduction=Log inoculums verification−sample log recovery.

S. aureus = assay: Antimicrobial testing, time-kill with plate count; assay type: cell-based, Staphylococcus aureus; conditions: antimicrobial if greater than 5 log reduction
Protocol: as §1, §2, §3, §4, §5

`CCCCCCCCCCCC(=O)OCC1O[C@H](O[C@@]2(CCl)O[C@H](CCl)C(O)C2O)C(O)C(O)[C@H]1Cl` (stereo in doubt) [Compound 3, 1′,6′-Dichloro-1′,6′-dideoxy-β-D-fructofuranosyl-4-chloro-4-deoxy-6-O-monododecanoate-α-galactopyranoside] was tested, and the antimicrobial effect (P. aeruginosa) was “not P. aeruginosa” and the antimicrobial effect (S. aureus) was “has antimicrobial effect against S. aureus”.
